Source: ChEMBL document CHEMBL3875185, “Structure-anticonvulsant activity studies in the group of (E)-N-cinnamoyl aminoalkanols derivatives monosubstituted in phenyl ring with 4-Cl, 4-CH3 or 2-CH3” (Bioorg Med Chem, 2017)
The source made the active and inactive calls. The rule behind the calls is not given here.

How the values were obtained:
[1] = biological target: T1, Adenosine receptor A1 (Homo sapiens) (UniProt P30542); assay: Displacement of [3H]DPCPX from human recombinant adenosine receptor A1 expressed in CHO cells at 100 uM measured after 60 mins by scintillation counting method relative to control; assay type: cell-based
T1 sequence (whole entry): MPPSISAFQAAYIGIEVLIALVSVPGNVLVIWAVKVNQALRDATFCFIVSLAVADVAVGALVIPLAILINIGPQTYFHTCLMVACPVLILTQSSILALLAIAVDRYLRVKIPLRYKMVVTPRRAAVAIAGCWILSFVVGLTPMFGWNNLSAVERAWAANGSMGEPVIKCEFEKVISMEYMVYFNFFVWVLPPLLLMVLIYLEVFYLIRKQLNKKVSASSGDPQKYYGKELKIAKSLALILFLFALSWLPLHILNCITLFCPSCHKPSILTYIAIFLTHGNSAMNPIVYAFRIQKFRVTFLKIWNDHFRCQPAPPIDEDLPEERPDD

Mus musculus [2] = assay: Neurotoxicity in mouse assessed as induction of motor impairment at 30 mg/kg, ip measured at 4 hrs post dose by rotarod method; assay type: toxicity, organism-based; conditions: in vivo
Mus musculus [3] = assay: Anticonvulsant activity in 6-Hz induced seizure mouse model assessed as restoration of normal activity within 10 secs from stimulation at 100 mg/kg, ip at 32 mA measured at […] post dose; assay type: functional, organism-based
Mus musculus [4] = assay: Anticonvulsant activity in ip dosed pentylenetetrazole induced seizure mouse model assessed as no observable episode of clonic convulsion of at least 5 secs by measuring time to peak effect; assay type: functional
Mus musculus [5] = assay: Anticonvulsant activity in ip dosed 6-Hz induced seizure mouse model assessed as restoration of normal activity within 10 secs from stimulation by measuring time to peak effect at 32 mA; assay type: functional
Mus musculus [6] = assay: Anticonvulsant activity in ip dosed 6-Hz induced seizure mouse model assessed as restoration of normal activity within 10 secs from stimulation by measuring time to peak effect at 44 mA; assay type: functional
Mus musculus [7] = assay: Anticonvulsant activity in ip dosed 6-Hz induced seizure mouse model assessed as restoration of normal activity within 10 secs from stimulation at 32 mA; assay type: functional
[8] = Neurotoxicity in ip dosed mouse; assay type: toxicity, organism-based; conditions: in vivo
Rattus norvegicus [9] = assay: Anticonvulsant activity in ip dosed maximal electroshock induced seizure Sprague-Dawley rat model assessed as suppression in hindlimb tonic extension; assay type: functional
[10] = Protection index, ratio of TD50 for neurotoxicity in ip dosed Sprague-Dawley rat model to ED50 for ip dosed maximal electroshock induced seizure Sprague-Dawley rat model; assay type: toxicity, organism-based; conditions: in vivo, read-out: Ratio TD50/ED50
[11] = biological target: D(1B) dopamine receptor (Homo sapiens) (UniProt P21918); assay: Displacement of [3H]SCH 23390 from human recombinant D5 receptor expressed in GH4 cells at 100 uM measured after 60 mins by scintillation counting method relative to control; assay type: cell-based
Sequence of D(1B) dopamine receptor (Homo sapiens) (P21918 whole entry): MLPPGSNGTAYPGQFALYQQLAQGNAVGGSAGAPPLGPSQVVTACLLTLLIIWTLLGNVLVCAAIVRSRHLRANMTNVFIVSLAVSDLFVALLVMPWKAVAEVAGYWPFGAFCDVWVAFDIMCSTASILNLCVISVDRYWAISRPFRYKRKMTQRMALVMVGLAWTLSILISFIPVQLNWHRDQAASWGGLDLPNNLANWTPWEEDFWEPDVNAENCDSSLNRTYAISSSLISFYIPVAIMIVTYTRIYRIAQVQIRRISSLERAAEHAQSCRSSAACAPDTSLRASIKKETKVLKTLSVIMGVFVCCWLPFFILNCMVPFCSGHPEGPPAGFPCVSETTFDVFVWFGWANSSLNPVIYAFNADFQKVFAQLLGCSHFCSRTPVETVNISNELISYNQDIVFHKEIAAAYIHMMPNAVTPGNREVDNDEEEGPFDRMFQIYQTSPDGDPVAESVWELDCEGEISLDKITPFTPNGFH

Rattus norvegicus [12] = species on record: Rattus norvegicus; assay: Displacement of [3H]GABA from rat cerebral cortex GABA receptor at 100 uM
[13] = biological target: T2, Galanin receptor type 1 (Homo sapiens) (UniProt P47211); assay: Displacement of [125I]galanin from human recombinant GAL1 receptor expressed in HEK293 cells at 100 uM measured after 60 mins by scintillation counting method relative to control; assay type: cell-based
T2 sequence (whole entry): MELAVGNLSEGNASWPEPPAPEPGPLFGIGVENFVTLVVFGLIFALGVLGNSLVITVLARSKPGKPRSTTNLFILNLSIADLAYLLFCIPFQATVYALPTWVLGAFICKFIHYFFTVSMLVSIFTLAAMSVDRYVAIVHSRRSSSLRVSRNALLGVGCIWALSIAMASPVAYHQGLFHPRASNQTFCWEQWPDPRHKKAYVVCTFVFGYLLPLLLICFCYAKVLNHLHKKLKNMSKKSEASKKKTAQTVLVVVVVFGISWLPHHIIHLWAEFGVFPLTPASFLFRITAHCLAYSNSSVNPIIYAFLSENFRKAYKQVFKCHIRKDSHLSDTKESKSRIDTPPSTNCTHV

[14] = biological target: Muscarinic acetylcholine receptor M3 (Homo sapiens) (UniProt P20309); assay: Displacement of [3H]4-DAMP from human recombinant M3 receptor expressed in CHO cells at 100 uM measured after 60 mins by scintillation counting method relative to control; assay type: cell-based
Sequence of Muscarinic acetylcholine receptor M3 (Homo sapiens) (P20309 whole entry, looked up): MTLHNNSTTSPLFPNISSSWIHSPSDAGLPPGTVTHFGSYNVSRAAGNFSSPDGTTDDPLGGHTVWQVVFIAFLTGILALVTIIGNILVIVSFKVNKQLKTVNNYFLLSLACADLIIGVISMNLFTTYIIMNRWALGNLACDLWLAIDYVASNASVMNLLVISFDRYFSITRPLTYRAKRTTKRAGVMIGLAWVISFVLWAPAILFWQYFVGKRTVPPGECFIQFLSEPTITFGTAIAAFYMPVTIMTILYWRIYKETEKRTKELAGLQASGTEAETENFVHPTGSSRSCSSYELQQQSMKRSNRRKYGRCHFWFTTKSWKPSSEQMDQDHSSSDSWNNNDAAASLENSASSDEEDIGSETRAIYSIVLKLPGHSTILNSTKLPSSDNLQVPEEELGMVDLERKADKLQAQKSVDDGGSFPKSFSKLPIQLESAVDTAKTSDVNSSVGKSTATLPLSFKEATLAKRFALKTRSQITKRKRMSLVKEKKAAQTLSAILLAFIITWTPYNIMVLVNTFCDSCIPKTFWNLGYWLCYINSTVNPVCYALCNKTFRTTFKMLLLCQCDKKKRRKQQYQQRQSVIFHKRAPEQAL

[15] = biological target: T3, Muscarinic acetylcholine receptor M4 (Homo sapiens) (UniProt P08173); assay: Displacement of [3H]4-DAMP from human recombinant M4 receptor expressed in CHO cells at 100 uM measured after 60 mins by scintillation counting method relative to control; assay type: cell-based
T3 sequence (whole entry): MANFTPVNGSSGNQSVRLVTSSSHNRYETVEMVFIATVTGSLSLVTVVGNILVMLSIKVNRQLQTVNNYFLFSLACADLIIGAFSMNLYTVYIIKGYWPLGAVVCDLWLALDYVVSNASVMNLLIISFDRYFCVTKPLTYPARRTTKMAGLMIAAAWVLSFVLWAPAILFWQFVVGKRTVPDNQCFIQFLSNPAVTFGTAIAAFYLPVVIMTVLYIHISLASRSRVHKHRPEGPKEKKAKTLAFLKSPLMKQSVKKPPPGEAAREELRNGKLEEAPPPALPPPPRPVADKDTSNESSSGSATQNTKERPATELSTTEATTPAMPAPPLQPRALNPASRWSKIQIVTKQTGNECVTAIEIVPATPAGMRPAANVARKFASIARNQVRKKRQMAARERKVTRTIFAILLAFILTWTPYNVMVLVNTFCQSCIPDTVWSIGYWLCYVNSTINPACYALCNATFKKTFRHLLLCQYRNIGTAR

[16] = biological target: T4, Vasoactive intestinal polypeptide receptor 1 (Homo sapiens) (UniProt P32241); assay: Displacement of [125I]VIP from human recombinant VPAC1 receptor expressed in CHO cells at 100 uM measured after 60 mins by scintillation counting method relative to control; assay type: cell-based
T4 sequence (whole entry): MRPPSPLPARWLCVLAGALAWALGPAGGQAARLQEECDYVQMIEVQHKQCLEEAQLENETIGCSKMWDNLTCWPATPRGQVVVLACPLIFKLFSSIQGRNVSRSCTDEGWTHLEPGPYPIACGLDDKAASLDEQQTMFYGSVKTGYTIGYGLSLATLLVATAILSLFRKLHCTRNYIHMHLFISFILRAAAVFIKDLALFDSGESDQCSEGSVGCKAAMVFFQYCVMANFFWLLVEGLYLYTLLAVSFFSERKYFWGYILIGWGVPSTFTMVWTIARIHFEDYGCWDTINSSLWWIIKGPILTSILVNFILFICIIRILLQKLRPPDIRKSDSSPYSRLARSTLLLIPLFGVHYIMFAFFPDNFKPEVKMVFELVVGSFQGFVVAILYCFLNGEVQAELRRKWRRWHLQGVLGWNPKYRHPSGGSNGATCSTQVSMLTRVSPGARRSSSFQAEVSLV

[17] = biological target: Sodium-dependent dopamine transporter (Homo sapiens) (UniProt Q01959); assay: Displacement of [3H]BTCP from human recombinant dopamine transporter expressed in CHO cells at 100 uM measured after 120 mins by scintillation counting method relative to control; assay type: cell-based
Sequence of Sodium-dependent dopamine transporter (Homo sapiens) (Q01959 whole entry): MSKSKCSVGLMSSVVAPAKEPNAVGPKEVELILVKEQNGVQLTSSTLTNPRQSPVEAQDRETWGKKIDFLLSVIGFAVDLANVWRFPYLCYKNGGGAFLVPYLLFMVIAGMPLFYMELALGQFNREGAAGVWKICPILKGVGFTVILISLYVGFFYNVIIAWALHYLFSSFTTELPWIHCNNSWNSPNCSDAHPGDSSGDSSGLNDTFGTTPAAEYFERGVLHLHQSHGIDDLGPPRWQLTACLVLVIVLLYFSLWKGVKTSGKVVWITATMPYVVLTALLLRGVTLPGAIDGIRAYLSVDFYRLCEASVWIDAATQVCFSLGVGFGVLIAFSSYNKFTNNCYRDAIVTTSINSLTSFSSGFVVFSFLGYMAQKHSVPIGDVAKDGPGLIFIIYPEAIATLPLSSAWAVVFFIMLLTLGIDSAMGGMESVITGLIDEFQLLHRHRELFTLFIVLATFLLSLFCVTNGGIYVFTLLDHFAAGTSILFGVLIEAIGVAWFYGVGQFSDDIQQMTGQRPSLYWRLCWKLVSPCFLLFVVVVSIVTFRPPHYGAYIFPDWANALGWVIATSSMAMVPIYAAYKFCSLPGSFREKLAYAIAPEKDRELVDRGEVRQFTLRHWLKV

Row | Compound | inhibition [1] [%] | Activity (Mus musculus [2]) | Activity (Mus musculus [3]) | Time (Mus musculus [4]) [h] | Time (Mus musculus [5]) [h] | Time (Mus musculus [6]) [h] | ED50 (Mus musculus [7]) [mg/kg] | TD50 [8] [mg/kg] | ED50 (Rattus norvegicus [9]) [mg/kg] | selectivity ratio [10] | inhibition [11] [%] | inhibition (Rattus norvegicus [12]) [%] | inhibition [13] [%] | inhibition [14] [%] | inhibition [15] [%] | inhibition [16] [%] | inhibition [17] [%]
1 | CCC(CO)NC(=O)/C=C/c1ccc(Cl)cc1 (stereo unspecified) | -0.4 | Non-Toxic | Active | 0.25 | 0.25 | 0.5 | 57.6 | 196 | 21.2 | 3.74 | 12.3 | 8.7 | -1.2 | 1.5 | 1.7 | 4.8 | 29.5
2 | CC(O)CNC(=O)/C=C/c1ccc(Cl)cc1 (stereo unspecified) | 10 | Non-Toxic | Active | 0.5 | 0.5 | 0.25 | 42.3 | 180 | 41.9 | 1.66 | 13 | -1.3 | 6.6 | 2.9 | 8.9 | -0.4 | 16
3 | Cc1ccccc1/C=C/C(=O)N[C@@H](C)CO | 1.3 | Non-Toxic | Active | 0.25 | 0.25 | 0.5 | 52.6 | 150 | 16.3 | 6.3 | 8 | 13.2 | 1.4 | -2 | -3.2 | 2 | 14.8
